Among the data in ChEMBL document CHEMBL3991601, “The target landscape of clinical kinase drugs” (Science, 2017) are Kd values, retold here.

Activity calls are given as the source filed them. Cut-off read from the data, not from the text of the source, for most assays here: actives have a measured Kd and inactives only a lower limit. Bounds are passed on as bounds.

Assay [1] deals with Tyrosine-protein kinase ABL2 (Homo sapiens, UniProt P42684).
In assay [2] the target is RAC-gamma serine/threonine-protein kinase (Homo sapiens, UniProt Q9Y243).
RAC-gamma serine/threonine-protein kinase, sequence (Q9Y243 whole entry, canonical isoform): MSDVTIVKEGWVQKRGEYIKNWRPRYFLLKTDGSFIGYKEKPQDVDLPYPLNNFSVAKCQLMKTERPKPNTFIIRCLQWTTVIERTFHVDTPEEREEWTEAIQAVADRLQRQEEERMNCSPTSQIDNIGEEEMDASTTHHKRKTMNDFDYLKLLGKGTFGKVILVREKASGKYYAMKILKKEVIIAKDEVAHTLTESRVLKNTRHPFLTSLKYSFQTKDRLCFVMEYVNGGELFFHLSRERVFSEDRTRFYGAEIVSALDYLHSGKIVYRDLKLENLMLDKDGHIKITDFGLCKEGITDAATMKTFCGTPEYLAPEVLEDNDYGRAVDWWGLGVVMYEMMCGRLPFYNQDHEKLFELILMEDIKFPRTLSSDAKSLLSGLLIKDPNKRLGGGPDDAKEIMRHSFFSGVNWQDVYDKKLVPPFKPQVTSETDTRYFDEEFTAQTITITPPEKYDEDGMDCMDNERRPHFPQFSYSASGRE
Assay [3] addresses Casein kinase I isoform delta (Homo sapiens, UniProt P48730).
Assay [4] addresses T1, Mitogen-activated protein kinase 15 (Homo sapiens, UniProt Q8TD08).
T1 sequence (Q8TD08 whole entry): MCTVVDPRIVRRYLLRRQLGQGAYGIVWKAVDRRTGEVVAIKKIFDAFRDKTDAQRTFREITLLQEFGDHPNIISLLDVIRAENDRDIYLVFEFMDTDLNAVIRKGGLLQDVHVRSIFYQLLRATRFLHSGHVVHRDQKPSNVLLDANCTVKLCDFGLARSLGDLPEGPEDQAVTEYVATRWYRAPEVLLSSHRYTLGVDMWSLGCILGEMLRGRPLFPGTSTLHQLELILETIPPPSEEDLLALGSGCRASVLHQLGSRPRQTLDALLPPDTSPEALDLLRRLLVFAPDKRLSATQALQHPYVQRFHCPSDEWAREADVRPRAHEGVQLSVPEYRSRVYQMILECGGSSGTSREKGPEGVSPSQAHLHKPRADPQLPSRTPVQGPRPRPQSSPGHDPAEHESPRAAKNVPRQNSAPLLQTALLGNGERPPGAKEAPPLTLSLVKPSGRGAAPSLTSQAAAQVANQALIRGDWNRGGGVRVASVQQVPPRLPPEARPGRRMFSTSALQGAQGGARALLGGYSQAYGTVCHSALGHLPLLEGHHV

For assay [5], the target named is T2, MAP kinase-activated protein kinase 5 (Homo sapiens, UniProt Q8IW41).
T2 sequence (Q8IW41 whole entry): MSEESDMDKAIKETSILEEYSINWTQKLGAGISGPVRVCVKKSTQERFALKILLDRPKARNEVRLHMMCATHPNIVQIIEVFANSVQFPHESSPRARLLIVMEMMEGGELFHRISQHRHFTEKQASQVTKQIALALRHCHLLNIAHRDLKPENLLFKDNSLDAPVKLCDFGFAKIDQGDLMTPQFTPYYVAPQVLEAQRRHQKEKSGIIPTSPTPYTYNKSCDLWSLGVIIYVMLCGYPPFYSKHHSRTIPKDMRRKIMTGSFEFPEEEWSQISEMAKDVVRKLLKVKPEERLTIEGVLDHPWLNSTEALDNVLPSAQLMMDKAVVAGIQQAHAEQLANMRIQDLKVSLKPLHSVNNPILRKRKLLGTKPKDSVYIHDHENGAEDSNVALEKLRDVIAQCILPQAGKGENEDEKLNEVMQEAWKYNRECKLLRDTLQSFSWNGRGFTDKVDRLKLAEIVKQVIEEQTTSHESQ

Assay [6] deals with Macrophage-stimulating protein receptor (Homo sapiens, UniProt Q04912).
Macrophage-stimulating protein receptor, sequence (Q04912 25-304 limits assumed): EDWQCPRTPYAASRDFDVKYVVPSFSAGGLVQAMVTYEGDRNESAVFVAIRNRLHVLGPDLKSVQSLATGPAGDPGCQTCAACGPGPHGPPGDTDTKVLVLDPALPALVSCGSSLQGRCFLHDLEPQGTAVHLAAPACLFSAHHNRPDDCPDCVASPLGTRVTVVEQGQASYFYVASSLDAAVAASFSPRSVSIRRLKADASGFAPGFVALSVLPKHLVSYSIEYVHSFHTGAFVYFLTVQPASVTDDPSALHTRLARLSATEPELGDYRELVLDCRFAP
Macrophage-stimulating protein receptor, sequence (Q04912 310-1400 limits assumed): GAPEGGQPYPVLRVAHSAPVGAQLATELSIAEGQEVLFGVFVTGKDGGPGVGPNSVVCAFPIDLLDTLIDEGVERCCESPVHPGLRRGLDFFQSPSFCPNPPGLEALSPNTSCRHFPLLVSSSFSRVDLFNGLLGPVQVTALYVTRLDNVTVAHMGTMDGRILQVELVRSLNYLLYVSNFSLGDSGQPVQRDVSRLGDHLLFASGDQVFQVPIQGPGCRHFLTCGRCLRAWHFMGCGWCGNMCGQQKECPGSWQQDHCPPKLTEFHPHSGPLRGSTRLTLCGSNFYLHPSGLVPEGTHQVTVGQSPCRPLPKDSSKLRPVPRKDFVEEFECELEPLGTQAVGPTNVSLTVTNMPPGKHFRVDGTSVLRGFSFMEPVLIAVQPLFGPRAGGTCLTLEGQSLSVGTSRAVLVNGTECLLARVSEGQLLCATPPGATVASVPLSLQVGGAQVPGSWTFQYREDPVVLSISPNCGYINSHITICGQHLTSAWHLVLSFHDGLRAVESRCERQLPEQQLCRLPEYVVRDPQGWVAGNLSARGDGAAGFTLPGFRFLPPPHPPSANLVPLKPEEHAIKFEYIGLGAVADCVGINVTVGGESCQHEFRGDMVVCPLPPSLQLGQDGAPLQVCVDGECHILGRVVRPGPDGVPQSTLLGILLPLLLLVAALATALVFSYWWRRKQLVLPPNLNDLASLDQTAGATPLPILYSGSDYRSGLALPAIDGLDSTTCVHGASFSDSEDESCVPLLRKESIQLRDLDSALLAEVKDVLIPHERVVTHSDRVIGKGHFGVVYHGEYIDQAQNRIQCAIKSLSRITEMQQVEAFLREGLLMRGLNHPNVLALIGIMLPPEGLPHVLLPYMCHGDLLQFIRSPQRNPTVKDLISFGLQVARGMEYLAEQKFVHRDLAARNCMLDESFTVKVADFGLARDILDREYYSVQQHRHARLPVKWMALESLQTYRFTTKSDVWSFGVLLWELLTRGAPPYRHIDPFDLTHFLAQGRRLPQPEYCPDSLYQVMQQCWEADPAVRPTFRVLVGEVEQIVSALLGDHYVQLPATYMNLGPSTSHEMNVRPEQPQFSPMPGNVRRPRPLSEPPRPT
The target of assay [7] is T3, NUAK family SNF1-like kinase 2 (Homo sapiens, UniProt Q9H093).
T3 sequence (Q9H093 whole entry): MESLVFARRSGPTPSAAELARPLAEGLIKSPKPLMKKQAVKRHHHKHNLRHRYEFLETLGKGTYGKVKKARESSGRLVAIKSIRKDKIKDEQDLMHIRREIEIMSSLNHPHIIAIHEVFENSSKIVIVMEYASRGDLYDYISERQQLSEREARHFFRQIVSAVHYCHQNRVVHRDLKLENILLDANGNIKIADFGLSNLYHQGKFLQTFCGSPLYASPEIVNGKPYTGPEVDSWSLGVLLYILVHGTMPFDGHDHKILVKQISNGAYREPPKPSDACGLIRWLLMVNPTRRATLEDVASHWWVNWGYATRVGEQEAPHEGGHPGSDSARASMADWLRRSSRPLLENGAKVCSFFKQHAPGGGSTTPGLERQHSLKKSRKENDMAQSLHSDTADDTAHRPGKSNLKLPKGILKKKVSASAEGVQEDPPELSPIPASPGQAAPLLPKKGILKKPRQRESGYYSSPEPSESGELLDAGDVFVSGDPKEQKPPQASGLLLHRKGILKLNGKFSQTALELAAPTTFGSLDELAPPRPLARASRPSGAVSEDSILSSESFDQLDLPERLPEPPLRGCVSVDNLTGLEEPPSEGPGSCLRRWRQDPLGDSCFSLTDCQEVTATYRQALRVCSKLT

In assay [8] the target is 5'-AMP-activated protein kinase catalytic subunit alpha-1 (Homo sapiens, UniProt Q13131).
5'-AMP-activated protein kinase catalytic subunit alpha-1, sequence (Q13131 whole entry): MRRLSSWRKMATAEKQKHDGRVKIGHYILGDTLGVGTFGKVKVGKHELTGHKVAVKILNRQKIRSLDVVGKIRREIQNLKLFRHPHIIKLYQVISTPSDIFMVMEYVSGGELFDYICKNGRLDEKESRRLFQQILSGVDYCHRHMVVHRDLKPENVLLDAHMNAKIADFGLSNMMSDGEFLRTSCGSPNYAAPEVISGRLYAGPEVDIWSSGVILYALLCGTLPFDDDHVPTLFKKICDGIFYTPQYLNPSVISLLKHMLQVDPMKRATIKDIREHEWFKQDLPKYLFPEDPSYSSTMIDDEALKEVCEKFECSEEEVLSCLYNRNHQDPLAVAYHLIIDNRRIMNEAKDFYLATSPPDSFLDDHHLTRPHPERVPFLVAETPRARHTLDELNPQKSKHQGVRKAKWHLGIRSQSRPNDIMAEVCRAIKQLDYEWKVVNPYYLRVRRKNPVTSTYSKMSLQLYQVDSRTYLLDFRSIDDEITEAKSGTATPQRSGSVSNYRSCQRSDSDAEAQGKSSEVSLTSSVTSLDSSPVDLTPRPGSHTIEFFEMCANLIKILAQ
For assay [9], the target named is cAMP-dependent protein kinase catalytic subunit alpha (Homo sapiens, UniProt P17612).
Assay [10] addresses Protein-tyrosine kinase 6 (Homo sapiens, UniProt Q13882).
Assay [11] concerns the target T4, Ras-related protein Rab-27A (Homo sapiens, UniProt P51159).
T4 sequence (P51159 whole entry): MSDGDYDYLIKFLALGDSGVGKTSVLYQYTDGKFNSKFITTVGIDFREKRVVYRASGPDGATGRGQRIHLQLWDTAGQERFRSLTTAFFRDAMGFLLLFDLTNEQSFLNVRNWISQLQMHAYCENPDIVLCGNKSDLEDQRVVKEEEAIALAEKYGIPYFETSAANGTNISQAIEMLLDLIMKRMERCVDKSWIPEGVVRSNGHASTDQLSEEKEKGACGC

The target in assay [12] is Ribosomal protein S6 kinase alpha-4 (Homo sapiens, UniProt O75676).
Ribosomal protein S6 kinase alpha-4, sequence (O75676 whole entry): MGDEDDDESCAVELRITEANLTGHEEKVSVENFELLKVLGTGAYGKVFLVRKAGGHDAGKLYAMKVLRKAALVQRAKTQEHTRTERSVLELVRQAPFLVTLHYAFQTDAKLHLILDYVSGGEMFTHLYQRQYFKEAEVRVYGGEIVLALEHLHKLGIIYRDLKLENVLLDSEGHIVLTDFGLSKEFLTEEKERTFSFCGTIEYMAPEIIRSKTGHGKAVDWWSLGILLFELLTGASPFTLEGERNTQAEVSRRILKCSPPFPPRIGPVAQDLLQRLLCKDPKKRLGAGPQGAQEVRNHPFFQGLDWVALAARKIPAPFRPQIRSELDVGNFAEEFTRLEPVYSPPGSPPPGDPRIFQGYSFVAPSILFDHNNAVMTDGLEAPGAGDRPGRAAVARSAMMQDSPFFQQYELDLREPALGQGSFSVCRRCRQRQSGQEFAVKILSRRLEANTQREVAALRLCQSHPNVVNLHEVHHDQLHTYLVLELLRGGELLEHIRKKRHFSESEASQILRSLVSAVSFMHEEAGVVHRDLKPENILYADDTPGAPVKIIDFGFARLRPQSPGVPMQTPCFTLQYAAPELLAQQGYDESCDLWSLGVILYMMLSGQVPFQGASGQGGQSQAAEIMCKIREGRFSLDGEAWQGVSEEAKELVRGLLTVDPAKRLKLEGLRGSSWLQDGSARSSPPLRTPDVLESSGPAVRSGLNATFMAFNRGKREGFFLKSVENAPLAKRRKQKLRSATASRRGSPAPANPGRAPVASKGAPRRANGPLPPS
Assay [13] deals with Mitogen-activated protein kinase kinase kinase 20 (Homo sapiens, UniProt Q9NYL2).
Mitogen-activated protein kinase kinase kinase 20, sequence (Q9NYL2 whole entry): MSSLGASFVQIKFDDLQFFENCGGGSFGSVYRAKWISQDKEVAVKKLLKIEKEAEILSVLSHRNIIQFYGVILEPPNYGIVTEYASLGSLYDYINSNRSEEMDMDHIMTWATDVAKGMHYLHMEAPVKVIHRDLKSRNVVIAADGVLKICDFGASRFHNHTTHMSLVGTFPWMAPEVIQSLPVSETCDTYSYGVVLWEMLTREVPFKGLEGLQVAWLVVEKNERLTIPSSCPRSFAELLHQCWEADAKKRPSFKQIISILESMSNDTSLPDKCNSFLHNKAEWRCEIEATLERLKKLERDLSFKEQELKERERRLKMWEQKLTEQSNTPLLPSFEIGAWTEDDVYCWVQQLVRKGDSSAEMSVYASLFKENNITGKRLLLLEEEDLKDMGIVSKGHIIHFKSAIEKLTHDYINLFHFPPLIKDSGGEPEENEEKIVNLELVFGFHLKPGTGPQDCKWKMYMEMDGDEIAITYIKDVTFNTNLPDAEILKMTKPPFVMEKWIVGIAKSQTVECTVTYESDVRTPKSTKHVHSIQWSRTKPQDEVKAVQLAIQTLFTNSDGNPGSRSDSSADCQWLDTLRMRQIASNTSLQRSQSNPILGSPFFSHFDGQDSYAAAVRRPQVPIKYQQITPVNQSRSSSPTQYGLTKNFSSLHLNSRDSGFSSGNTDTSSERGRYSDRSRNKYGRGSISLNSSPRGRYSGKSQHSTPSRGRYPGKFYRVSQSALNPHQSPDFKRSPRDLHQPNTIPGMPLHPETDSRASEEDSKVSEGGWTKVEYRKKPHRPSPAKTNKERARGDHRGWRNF
Note: in the data inactive means no Kd found up to 30 µM.

Protein-tyrosine kinase 6, sequence (Q13882 whole entry): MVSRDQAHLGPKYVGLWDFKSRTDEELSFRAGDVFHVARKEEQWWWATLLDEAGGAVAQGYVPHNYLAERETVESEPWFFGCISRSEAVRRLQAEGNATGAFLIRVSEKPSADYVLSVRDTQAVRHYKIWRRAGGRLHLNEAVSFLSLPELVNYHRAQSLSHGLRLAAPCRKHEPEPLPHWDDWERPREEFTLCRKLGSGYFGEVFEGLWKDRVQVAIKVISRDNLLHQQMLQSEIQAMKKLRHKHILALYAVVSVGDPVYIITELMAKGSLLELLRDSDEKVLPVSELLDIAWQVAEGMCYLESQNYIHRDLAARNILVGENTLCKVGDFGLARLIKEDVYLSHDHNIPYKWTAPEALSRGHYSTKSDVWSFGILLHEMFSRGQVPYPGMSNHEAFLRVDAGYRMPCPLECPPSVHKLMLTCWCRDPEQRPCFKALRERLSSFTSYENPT
Casein kinase I isoform delta, sequence (P48730 whole entry, canonical isoform): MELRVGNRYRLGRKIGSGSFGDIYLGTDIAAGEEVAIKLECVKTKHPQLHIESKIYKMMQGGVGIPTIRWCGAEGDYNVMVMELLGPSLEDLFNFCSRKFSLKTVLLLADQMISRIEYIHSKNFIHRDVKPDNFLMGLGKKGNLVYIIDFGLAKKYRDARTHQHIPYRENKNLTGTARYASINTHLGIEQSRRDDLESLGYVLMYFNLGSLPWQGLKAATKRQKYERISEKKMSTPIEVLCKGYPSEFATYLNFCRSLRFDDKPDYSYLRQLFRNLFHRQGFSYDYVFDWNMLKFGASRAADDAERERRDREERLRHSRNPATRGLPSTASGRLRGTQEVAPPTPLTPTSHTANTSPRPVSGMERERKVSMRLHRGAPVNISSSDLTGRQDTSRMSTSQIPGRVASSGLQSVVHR

On to `S=C(NCc1ccc2c(c1)OCO2)N1CCN(c2ncnc3c2oc2ccccc23)CC1` [AMUVATINIB], for which the Kd in [1], in assay [2], in assay [3], in assay [4], in [5] and in assay [6] was > 30 µM (inactive) throughout. For the same compound, the Kd in assay [7], in assay [8], in [9], in assay [10], in [11] and in assay [12] was > 30 µM (inactive) throughout. Besides, the Kd – broadly, the concentration at which binding is half-saturated – in assay [13] was > 30 µM (inactive).
For the compound `COc1cc(F)c(F)c(Nc2ccc(I)cc2F)c1NS(=O)(=O)C1(C[C@H](O)CO)CC1` [REFAMETINIB], the Kd in assay [1], in assay [2], in assay [3], in [4], in assay [5] and in assay [6] was > 30 µM (inactive) each time. Also, the Kd in assay [7], in assay [8], in assay [9], in assay [10], in assay [11] and in assay [12] was > 30 µM (inactive) throughout. For the same compound, in assay [13], the Kd was > 30 µM (inactive).
For the compound `Cc1ccc(C(=O)Nc2ccc(Oc3cc4cnn(C)c4cc3-c3cn[nH]c3)c(F)c2)c(=O)n1-c1ccc(F)cc1` [MERESTINIB], the Kd in assay [1] is > 30 µM (inactive); in [2], > 30 µM (inactive); in assay [3], > 30 µM (inactive); in assay [4] it was > 30 µM (inactive); in assay [5] it was > 30 µM (inactive); in assay [6], 0.232 µM. Also, the Kd in assay [7], in assay [8], in assay [9], in [10], in assay [11] and in [12] was > 30 µM (inactive) throughout. The Kd in assay [13] was > 30 µM (inactive).
On to `C=CC(=O)Nc1cc(Nc2nccc(-c3cn(C)c4ccccc34)n2)c(OC)cc1N(C)CCN(C)C` [OSIMERTINIB], for which the Kd in assay [1], in [2], in [3], in assay [4], in assay [5] and in [6] was > 30 µM (inactive) each time. Besides, the Kd in assay [7], in assay [8], in assay [9], in assay [10], in assay [11] and in assay [12] was > 30 µM (inactive) throughout. In assay [13], the Kd was > 30 µM (inactive).
For the compound `COc1cc(Nc2ncc(F)c(Nc3ccc4c(n3)N(COP(=O)(O)O)C(=O)C(C)(C)O4)n2)cc(OC)c1OC` [FOSTAMATINIB], the Kd was > 30 µM (inactive) in assay [1]; > 30 µM (inactive) in assay [2]; > 30 µM (inactive) in assay [3]; > 30 µM (inactive) in [4]; > 30 µM (inactive) in assay [5]; 2.13 µM (active) in assay [6]. Besides, the Kd in assay [7], in assay [8], in assay [9], in [10], in assay [11] and in assay [12] was > 30 µM (inactive) each time. Also, the Kd in [13] was > 30 µM (inactive).
On to `CCc1nc(C(N)=O)c(Nc2ccc(N3CCC(N4CCN(C)CC4)CC3)c(OC)c2)nc1NC1CCOCC1` [GILTERITINIB], for which the Kd in assay [1] was > 30 µM (inactive); in assay [2] it was > 30 µM (inactive); in assay [3] it was > 30 µM (inactive); in [4], 0.263 µM; in assay [5] it was > 30 µM (inactive); in assay [6], 0.804 µM (active). In addition, the Kd in [7], in assay [8], in assay [9], in assay [10], in assay [11] and in [12] was > 30 µM (inactive) each time. Further, the Kd in [13] is > 30 µM (inactive).
